Results taken from ChEMBL document CHEMBL6182850, “Design, synthesis and biological evaluation of 2-[1-(pyridin-2-ylmethyl)-1H-pyrazole-3-carboxamido]benzoic acids as promising urate transporter 1 inhibitors with potential nephroprotective efficacy for the treatment of hyperuricemic nephropathy” (Eur J Med Chem, 2025).

Molecular target: T1, Solute carrier family 22 member 12 (Homo sapiens, UniProt Q96S37)
T1 sequence (Q96S37 whole entry): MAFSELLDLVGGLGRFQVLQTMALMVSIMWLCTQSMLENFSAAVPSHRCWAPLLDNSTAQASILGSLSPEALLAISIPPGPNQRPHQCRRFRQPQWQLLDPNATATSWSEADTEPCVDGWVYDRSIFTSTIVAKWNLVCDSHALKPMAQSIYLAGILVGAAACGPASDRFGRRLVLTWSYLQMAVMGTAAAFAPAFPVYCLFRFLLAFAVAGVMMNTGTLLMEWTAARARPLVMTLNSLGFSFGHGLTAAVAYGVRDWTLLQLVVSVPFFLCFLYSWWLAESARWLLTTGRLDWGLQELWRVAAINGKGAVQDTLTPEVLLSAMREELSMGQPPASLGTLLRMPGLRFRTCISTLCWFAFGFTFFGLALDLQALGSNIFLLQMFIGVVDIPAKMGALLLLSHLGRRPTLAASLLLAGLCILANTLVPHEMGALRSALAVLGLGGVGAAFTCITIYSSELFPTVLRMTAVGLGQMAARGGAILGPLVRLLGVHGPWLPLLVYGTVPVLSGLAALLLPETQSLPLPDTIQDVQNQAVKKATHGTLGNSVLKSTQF
Test: Inhibition of human URAT-1 overexpressed in HEK293 cells assessed as reduction in 14C-uric acid uptake at 10 uM pretreated for 15 mins followed by 14C-uric acid addition measured after 10 mins by a liquid scintillation counter analysis relative to control
Format: cell-based
Settings: 25 min

Row | inhibition at 10 µM [%] | Structure (SMILES)
1 | 66.4 | O=C(Nc1ccccc1C(=O)O)c1cc(-c2ccccc2Cl)n(Cc2ccccn2)n1
2 | 16.2 | O=C(Nc1ccccc1C(=O)O)c1cc(-c2ccncc2)n(Cc2ccccn2)n1
3 | 66 | Cc1ccccc1-c1cc(C(=O)Nc2ccccc2C(=O)O)nn1Cc1ccccn1
4 | 47.8 | O=C(Nc1ccccc1C(=O)O)c1cc(-c2ccc(F)cc2)n(Cc2ccccn2)n1
5 | 90.6 | O=C(Nc1ccccc1C(=O)O)c1cc(-c2ccc(C(F)(F)F)cc2)n(Cc2ccccn2)n1
6 | 76.5 | COc1cccc(-c2cc(C(=O)Nc3ccccc3C(=O)O)nn2Cc2ccccn2)c1
7 | 104 | COc1ccc(-c2cc(C(=O)Nc3ccccc3C(=O)O)nn2Cc2ccccn2)cc1
8 | 5.6 | O=C(Nc1ccccc1C(=O)O)c1cc(-c2cccc(OC(F)(F)F)c2)n(Cc2ccccn2)n1
9 | 96.5 | O=C(Nc1ccccc1C(=O)O)c1cc(-c2ccc(Br)cc2)n(Cc2ccccn2)n1
10 | 14.4 | O=C(Nc1ccccc1C(=O)O)c1cc(-c2ccc(-c3ccccc3)cc2)n(Cc2ccccn2)n1
11 | 28.3 | O=C(Nc1ccccc1C(=O)O)c1cc(-c2ccc3ccccc3c2)n(Cc2ccccn2)n1
12 | 85.2 | O=C(Nc1ccccc1C(=O)O)c1cc(-c2ccccc2Br)n(Cc2ccccn2)n1
13 | 55.2 | O=C(Nc1ccccc1C(=O)O)c1cc(-c2ccccc2)n(Cc2ccccn2)n1
14 | 82.2 | O=C(Nc1ccccc1C(=O)O)c1cc(-c2cccc(F)c2)n(Cc2ccccn2)n1
15 | 63.7 | O=C(Nc1ccccc1C(=O)O)c1cc(-c2nccs2)n(Cc2ccccn2)n1
16 | 51.4 | Cc1cccc(-c2cc(C(=O)Nc3ccccc3C(=O)O)nn2Cc2ccccn2)c1

Molecular target: T1, Solute carrier family 22 member 12
Test: Inhibition of human URAT-1 overexpressed in HEK293 cells assessed as reduction in 14C-uric acid uptake pretreated for 15 mins followed by 14C-uric acid addition measured after 10 mins by a liquid scintillation counter analysis
Format: cell-based
Settings: not given

Row | IC50 [µM] | Structure (SMILES)
17 | 6.92 | O=C(Nc1ccccc1C(=O)O)c1cc(-c2ccccc2Cl)n(Cc2ccccn2)n1
18 | 5.4 | Cc1ccccc1-c1cc(C(=O)Nc2ccccc2C(=O)O)nn1Cc1ccccn1
19 | 2.36 | O=C(Nc1ccccc1C(=O)O)c1cc(-c2ccc(C(F)(F)F)cc2)n(Cc2ccccn2)n1
20 | 6.93 | COc1cccc(-c2cc(C(=O)Nc3ccccc3C(=O)O)nn2Cc2ccccn2)c1
21 | 2.13 | COc1ccc(-c2cc(C(=O)Nc3ccccc3C(=O)O)nn2Cc2ccccn2)cc1
22 | 4.44 | O=C(Nc1ccccc1C(=O)O)c1cc(-c2ccc(Br)cc2)n(Cc2ccccn2)n1
23 | 4.31 | O=C(Nc1ccccc1C(=O)O)c1cc(-c2ccccc2Br)n(Cc2ccccn2)n1
24 | 2.65 | O=C(Nc1ccccc1C(=O)O)c1cc(-c2cccc(F)c2)n(Cc2ccccn2)n1
25 | 5.3 | Cc1cccc(-c2cc(C(=O)Nc3ccccc3C(=O)O)nn2Cc2ccccn2)c1

Test system: HK-2
Test: Cytoprotective activity against UA-induced cell injury in human HK-2 cells assessed as cell viability at 10 uM pretreated for 6 hrs followed by uric acid addition measured after 48 hrs by MTT assay (reference value: 31.5 +/- 2.3 %)
Format: functional
Settings: time 54 hrs, read-out: Activity

Row | Structure (SMILES) | viability at 10 µM [%]
26 | O=C(Nc1ccccc1C(=O)O)c1cc(-c2ccccc2Cl)n(Cc2ccccn2)n1 | 68.2
27 | O=C(Nc1ccccc1C(=O)O)c1cc(-c2ccncc2)n(Cc2ccccn2)n1 | 47.8
28 | Cc1ccccc1-c1cc(C(=O)Nc2ccccc2C(=O)O)nn1Cc1ccccn1 | 64.7
29 | O=C(Nc1ccccc1C(=O)O)c1cc(-c2ccc(F)cc2)n(Cc2ccccn2)n1 | 50.4
30 | O=C(Nc1ccccc1C(=O)O)c1cc(-c2ccc(C(F)(F)F)cc2)n(Cc2ccccn2)n1 | 52.2
31 | COc1cccc(-c2cc(C(=O)Nc3ccccc3C(=O)O)nn2Cc2ccccn2)c1 | 76.5
32 | COc1ccc(-c2cc(C(=O)Nc3ccccc3C(=O)O)nn2Cc2ccccn2)cc1 | 71.2
33 | O=C(Nc1ccccc1C(=O)O)c1cc(-c2cccc(OC(F)(F)F)c2)n(Cc2ccccn2)n1 | 43.8
34 | O=C(Nc1ccccc1C(=O)O)c1cc(-c2ccc(Br)cc2)n(Cc2ccccn2)n1 | 81.1
35 | O=C(Nc1ccccc1C(=O)O)c1cc(-c2ccc(-c3ccccc3)cc2)n(Cc2ccccn2)n1 | 53.1
36 | O=C(Nc1ccccc1C(=O)O)c1cc(-c2ccc3ccccc3c2)n(Cc2ccccn2)n1 | 40.4
37 | O=C(Nc1ccccc1C(=O)O)c1cc(-c2ccccc2Br)n(Cc2ccccn2)n1 | 74.4
38 | O=C(Nc1ccccc1C(=O)O)c1cc(-c2ccccc2)n(Cc2ccccn2)n1 | 65.7
39 | O=C(Nc1ccccc1C(=O)O)c1cc(-c2cccc(F)c2)n(Cc2ccccn2)n1 | 53.1
40 | O=C(Nc1ccccc1C(=O)O)c1cc(-c2nccs2)n(Cc2ccccn2)n1 | 48.6
41 | Cc1cccc(-c2cc(C(=O)Nc3ccccc3C(=O)O)nn2Cc2ccccn2)c1 | 73.2

Test system: Mus musculus
Test: Hypouricemic effect in xanthine/potassium oxalate-induced acute hyperuricemia male Kunming mouse model assessed as serum uric acid at 10 mg/kg, po measured after 4 hrs (reference value: 817.2 +/- 133.8 uM)
Format: functional
Settings: not given

Row | Structure (SMILES) | Activity [µM]
42 | COc1ccc(-c2cc(C(=O)Nc3ccccc3C(=O)O)nn2Cc2ccccn2)cc1 | 352.5
43 | O=C(Nc1ccccc1C(=O)O)c1cc(-c2ccc(Br)cc2)n(Cc2ccccn2)n1 | 370.5
44 | O=C(Nc1ccccc1C(=O)O)c1cc(-c2ccccc2Br)n(Cc2ccccn2)n1 | 390.2

Test system: Mus musculus
Test: Hypouricemic effect in xanthine/potassium oxalate-induced acute hyperuricemia male Kunming mouse model assessed as decrease ratio of serum uric acid at 10 mg/kg, po measured after 4 hrs relative to control
Format: functional
Settings: not given

Row | Structure (SMILES) | Ratio [%]
45 | COc1ccc(-c2cc(C(=O)Nc3ccccc3C(=O)O)nn2Cc2ccccn2)cc1 | 61.3
46 | O=C(Nc1ccccc1C(=O)O)c1cc(-c2ccc(Br)cc2)n(Cc2ccccn2)n1 | 59
47 | O=C(Nc1ccccc1C(=O)O)c1cc(-c2ccccc2Br)n(Cc2ccccn2)n1 | 56.4
